Earlier results, collected in US20250135196A1, “COMPOSITIONS, SYSTEMS, AND METHODS FOR TREATING CANCER USING TUMOR TREATING FIELDS WITH INHIBITORS OF MIF, MICA, AND/OR MICB” (Brown University, priority 2023, published 2025).

How the values were obtained:
MIF-CD74 = target: T1, MIF-CD74 (Homo sapiens, UniProt P14174); conditions: binding assay MIF-CD74; for Kd: read-out: Kd (BA)
T1 sequence (P14174 2-115 limits assumed): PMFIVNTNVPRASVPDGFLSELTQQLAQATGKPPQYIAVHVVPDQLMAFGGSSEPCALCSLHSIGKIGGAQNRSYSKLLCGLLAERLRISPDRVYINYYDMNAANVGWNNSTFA

MIF = target: T2, MIF (Homo sapiens, UniProt P14174); conditions: tautomerase assay; for IC50 / Ki: literature values, reference number in brackets in cell; for fold more potent than ISO-1 (TA): relative to ISO-1; for Ki: read-out: Ki (TA)
T2 sequence (P14174 2-115 limits assumed): T1 sequence (P14174 2-115 limits assumed)

COC(=O)CC1CC(c2ccc(O)cc2)=NO1 (racemic) [ISO-1]
Max. inhibition (BA) (MIF-CD74; maximal inhibition): 40%

Ic1cc(-c2ccccc2)ncn1 [4-IPP, 4-iodo-6-phenylpyrimidine]
IC50 (MIF): 200 to 500 nM

O=C(CC1CC(c2ccc(F)cc2F)=NO1)N1CCOCC1 (stereo not shown) [CPS1-1306]
fold more potent than ISO-1 (TA) (MIF): 100-fold more potent than ISO-1 [35] (TA)

CN(C(=O)CC1CC(c2ccc(Cl)cc2)=NO1)C1CCCCC1 (stereo not shown) [CPSI-2705]
fold more potent than ISO-1 (TA) (MIF): 2-10-fold more potent than ISO-1 (35) (TA)

O=C(O)c1cccc(Oc2cc(-c3cn(-c4ccc(O)c(F)c4)nn3)nc3ccccc23)c1 [Dziedzic-3bb]
Ki (MIF): 57 nM
Kd (MIF-CD74): 71 nM

COC(=O)CC1CC(c2ccc(O)c(F)c2)=NO1 (stereo not shown) [ISO-66]
IC50 (MIF): 1500 nM

COc1cccc(Cn2cc(-c3ccc(O)cc3)nn2)c1OC [Jorgensen-3g]
IC50 (MIF-CD74): 900 nM

COC(=O)c1cccc(Cn2cc(-c3ccc(O)cc3)nn2)c1 [Jorgensen-3h]
IC50 (MIF-CD74): 1000 nM

COc1ccc(N2Cc3ccc(O)cc3OC2=O)cc1 [NVS-2]
IC50 (MIF): 20 nM
Ki (MIF): 27 nM
Kd (MIF-CD74): 55 nM

Cc1ccccc1-c1cc2ccccc2c(=O)o1 [SCD-19]
inhibition (TA) (MIF; at concentration of 100 μM): 100% inhibition at concentration of 100 μM [37] (TA)
